Measured values published in US7550453B2, “2-alkoxy-3,4,5-trihydroxy-alkylamides, preparation thereof, compositions containing them and use thereof” (Aventis Pharma SA, priority 2004, dated 2009).

Each compound was assayed on Hep-G2 cells (assay: Inhibition of cell proliferation of Hep-G2 cells (intracellular ATP, CellTiterGlo)). Details: Homo sapiens, HepG2, 72 hours incubation, ATP content, read-out: IC 50 (μM)/HEP G2.
Assay type: cell-based
Procedure: The antitumoral activity of products 1 to 10 was determined by measuring the inhibition of cell proliferation of Hep-G2 cells. The cells are subcultured in a cell culture medium at a concentration of 1000 cells per well, and incubated for 4 hours at 37° C. and 5% CO2.
Medium used for the Hep-G2 and HCT-116 cell culture: Dubelcco's modified Eagle's medium/Ham mixture F12 (Gibco); NEAA (10%; nonessential amino acids, Gibco); sodium pyruvate (1%, Gibco); L-glutamine (1%, Gibco); fetal calf serum (5%; PAA).
After 4 hours, the test products dissolved in a DMSO/cell culture medium mixture are added at various concentrations and the resulting mixtures are incubated for 72 hours at 37° C. and 5% CO2. The intracellular ATP content was measured using the CellTiterGlo test reagent (Promega).

Compared with CO[C@@H](C(=O)N[C@H]1CCCCN(Cc2ccc(-c3ccccc3)cc2)C1=O)[C@H](O)[C@@H](O)[C@H](O)C=NOCc1ccccc1 (racemic) [Ex 10, N—[(S)-1-(biphenyl-4-ylmethyl)-2-oxoperhydro-azepin-3-yl](2R,3R,4S,5S)-6-benzyloxyimino-3,4,5-trihydroxy-2-methoxyhexylamide], CO[C@@H](C(=O)N[C@H]1CCCCN(Cc2ccc(-c3ccccc3)cc2)C1=O)[C@H](O)[C@@H](O)[C@H](O)/C=C/C(C)(C)C [Ex 2, N—[(S)-1-(biphenyl-4-ylmethyl)-2-oxoperhydroazepin-3-yl]-(E)-(2R,3R,4S,5R)-3,4,5-trihydroxy-2-methoxy-8,8-dimethylnon-6-enamide] is 14-fold lower in IC50: 18.3 µM for the first, 1.3 µM for the second.

First: CO[C@@H](C(=O)NC1CCCCNC1=O)[C@H](O)[C@@H](O)[C@H](O)/C=C/C(C)C (some centres unmarked) [Bengamide E, reference compound]
Second: CO[C@@H](C(=O)NC1CCCNC1=O)[C@H](O)[C@@H](O)[C@H](O)/C=C/C(C)(C)C (stereo partly drawn) [Ex 6, N-(2-oxopiperidin-3-yl)-(E)-(2R,3R,4S,5R)-3,4,5-trihydroxy-2-methoxy-8,8-dimethylnon-6-enamide]
The IC50 of the first is 5.9-fold higher: 7 µM for the first, 1.19 µM for the second.

First: CO[C@@H](C(=O)NC1Cc2ccccc2CN(C)C1=O)[C@H](O)[C@@H](O)[C@H](O)/C=C/C(C)(C)C (stereo partly drawn) [Ex 1, N-(2-Methyl-3-oxo-2,3,4,5-tetrahydro-1H-2-benzazepin-4-yl)-(E)-(2R,3R,4S,5R)-3,4,5-trihydroxy-2-methoxy-8,8-dimethylnon-6-enamide]
Second: CO[C@@H](C(=O)NC1Cc2ccccc2NC1=O)[C@H](O)[C@@H](O)[C@H](O)/C=C/C(C)(C)C (stereo partly drawn) [Ex 7, N-(2-oxo-1,2,3,4-tetrahydroquinolin-3-yl)-(E)-(2R,3R,4S,5R)-3,4,5-trihydroxy-2-methoxy-8,8-dimethylnon-6-enamide]
The IC50 of the first is 6.5-fold lower: 0.17 µM for the first, 1.11 µM for the second.

Compared with CO[C@@H](C(=O)NC1CN(c2ccccc2)C1=O)[C@H](O)[C@@H](O)[C@H](O)/C=C/C(C)(C)C (stereo partly drawn) [Ex 3, N-(2-Oxo-1-phenylazetidin-3-yl)-(E)-(2R,3R,4S,5R)-3,4,5-trihydroxy-2-methoxy-8,8-dimethylnon-6-enamide], CO[C@@H](C(=O)N[C@H]1Cc2ccccc2[C@H]2CCCCN2C1=O)[C@H](O)[C@@H](O)[C@H](O)/C=C/C(C)(C)C [Ex 9, N-((7S,12bR)-6-oxo-1,2,3,4,6,7,8,12b-octa-hydropyrido[2,1-a][2]benzazepin-7-yl)-(E)-(2R,3R,4S,5R)-3,4,5-trihydroxy-2-methoxy-8,8-dimethylnon-6-enamide] is 7.5-fold higher in IC50: 0.48 µM for the first, 3.6 µM for the second.

First: CO[C@@H](C(=O)NC1CCNC1=O)[C@H](O)[C@@H](O)[C@H](O)/C=C/C(C)(C)C (stereo partly drawn) [Ex 4, N-(2-oxopyrrolidin-3-yl)-(E)-(2R,3R,4S,5R)-3,4,5-trihydroxy-2-methoxy-8,8-dimethylnon-6-enamide]
Second: CO[C@@H](C(=O)NC1CSCCNC1=O)[C@H](O)[C@@H](O)[C@H](O)/C=C/C(C)(C)C (stereo partly drawn) [Ex 8, N-(5-oxoperhydro-1,4-thiazepin-6-yl)-(E)-(2R,3R,4S,5R)-3,4,5-trihydroxy-2-methoxy-8,8-dimethylnon-6-enamide]
The IC50 of the first is 3.7-fold higher: 3.1 µM for the first, 0.83 µM for the second.

For COC(=O)C1CC(NC(=O)[C@H](OC)[C@H](O)[C@@H](O)[C@H](O)/C=C/C(C)(C)C)C(=O)N1 (stereo partly drawn) [Ex 5, Methyl 5-oxo-4-((E)-(2R,3R,4S,5R)-3,4,5-tri-hydroxy-2-methoxy-8,8-dimethylnon-6-enoylamino)pyrrolidine-2-carboxylate], the IC50 was 26.7 µM.
